The source of these data is DBAASP.

What all share (test): ≥ marks a high value that may be exact or a test limit, other limits are often not marked, values filed in µg/mL are converted to µM
For assay [1], the system named is Streptococcus mutans UA159.
The test system of assay [2] is Streptococcus sanguinis NY101.
The subject of assay [3] is Staphylococcus aureus.
Assay [4] concerns Streptococcus gordonii Challis DL1.
Assay [5] has as its system Streptococcus mitis ATCC 903.
Assay [6] has as its system Pseudomonas aeruginosa PAK.
The subject of assay [7] is Bacillus cereus.
In assay [8] the test system is Staphylococcus aureus ATCC 2592.
The subject of assay [9] is Shigella dysenteriae.
The test system of assay [10] is Candida albicans ATCC 2002.
In assay [11] the test system is Escherichia coli ATCC 25922.
The test system of assay [12] is Pseudomonas aeruginosa.
The test system of assay [13] is Staphylococcus aureus ATCC 29213.
Assay [14] has as its system Candida albicans CGMCC 2.2086.
The test system of assay [15] is Staphylococcus epidermidis ATCC 12228.
Assay [16] relates to Salmonella enterica subsp. enterica serovar Typhimurium C77-31.
The test system of assay [17] is Salmonella enterica subsp. enterica serovar Typhimurium ATCC 14028.
The subject of assay [18] is Escherichia coli K88.
Assay [19] has as its system Staphylococcus aureus ATCC 43300.
In assay [20] the test system is Candida tropicalis CGMCC 2.1975.
Assay [21] relates to Escherichia coli 078.
Assay [22] deals with Salmonella enterica subsp. enterica serovar Pullorum ATCC 7913.
The subject of assay [23] is Pseudomonas aeruginosa ATCC 27853.
The test system of assay [24] is Candida parapsilosis CGMCC 2.3989.
The subject of assay [25] is Staphylococcus aureus ATCC 25923.
In assay [26] the test system is Escherichia coli UB1005.
Assay [27] has as its system Escherichia coli K99.
Assay [28] has as its system Escherichia coli B.
Assay [29] has as its system Bacillus subtilis 168.
Assay [30] concerns Candida albicans.

≈ marks a conversion by molar mass, not a printed value. Some results are limits rather than exact numbers.

One may read the MIC as the least concentration at which growth counts as inhibited. A lower MIC goes with a more susceptible organism. With `CC[C@H](C)[C@H](NC(=O)[C@H](Cc1ccccc1)NC(=O)[C@H](Cc1cnc[nH]1)NC(=O)[C@H](CCCCN)NC(=O)[C@@H](NC(=O)[C@@H](N)Cc1ccccc1)[C@@H](C)CC)C(=O)N[C@@H](Cc1cnc[nH]1)C(=O)N[C@@H](CCCN=C(N)N)C(=O)N[C@@H](Cc1ccccc1)C(=O)N[C@@H](CO)C(=O)N[C@@H](C)C(=O)N[C@H](C(=O)N[C@@H](CCCN=C(N)N)C(=O)N[C@@H](Cc1c[nH]c2ccccc12)C(=O)N[C@@H](CCCN=C(N)N)C(=O)N[C@@H](CCCN=C(N)N)C(=O)N[C@@H](CC(C)C)C(=O)N[C@@H](CC(C)C)C(=O)N[C@@H](CCCCN)C(=O)N[C@@H](CCCCN)C(=O)N[C@@H](CC(C)C)C(=O)N[C@@H](Cc1cnc[nH]1)C(=O)N[C@@H](Cc1cnc[nH]1)C(=O)N[C@@H](CC(C)C)C(=O)N[C@@H](CC(C)C)C(=O)N[C@@H](Cc1cnc[nH]1)C(N)=O)[C@@H](C)O` [FIKHFIHRFSATRWRRLLKKLHHLLH], the MIC in assay [1] amounted to 4.72 µM (≈ 16 µg/mL); in [2] it was 9.43 µM (≈ 32 µg/mL); in assay [3], 4.72 µM (≈ 16 µg/mL); in assay [4] it was 9.43 µM (≈ 32 µg/mL); in assay [5], 9.43 µM (≈ 32 µg/mL); in assay [6], 9.43 µM (≈ 32 µg/mL).
With `CC[C@H](C)[C@H](NC(=O)[C@H](Cc1ccccc1)NC(=O)[C@H](Cc1cnc[nH]1)NC(=O)[C@H](CCCCN)NC(=O)[C@@H](NC(=O)[C@@H](N)Cc1ccccc1)[C@@H](C)CC)C(=O)N[C@@H](Cc1cnc[nH]1)C(=O)N[C@@H](CCCN=C(N)N)C(=O)N[C@@H](Cc1ccccc1)C(=O)N[C@@H](CO)C(=O)NCC(=O)NCC(=O)N[C@@H](CCCN=C(N)N)C(=O)N[C@@H](Cc1c[nH]c2ccccc12)C(=O)N[C@@H](CCCN=C(N)N)C(=O)N[C@@H](CCCN=C(N)N)C(=O)N[C@@H](CC(C)C)C(=O)N[C@@H](CC(C)C)C(=O)N[C@@H](CCCCN)C(=O)N[C@@H](CCCCN)C(=O)N[C@@H](CC(C)C)C(=O)N[C@@H](Cc1cnc[nH]1)C(=O)N[C@@H](Cc1cnc[nH]1)C(=O)N[C@@H](CC(C)C)C(=O)N[C@@H](CC(C)C)C(=O)N[C@@H](Cc1cnc[nH]1)C(N)=O` [FIKHFIHRFSGGRWRRLLKKLHHLLH], the MIC was found to be 4.8 µM (≈ 16 µg/mL) in assay [1]; 4.8 µM (≈ 16 µg/mL) in [2]; 9.6 µM (≈ 32 µg/mL) in [3]; 9.6 µM (≈ 32 µg/mL) in assay [4]; 18.7 µM (≈ 62.5 µg/mL) in [5]; 9.6 µM (≈ 32 µg/mL) in assay [6].
Regarding `CC(C)C[C@H](NC(=O)[C@H](CC(C)C)NC(=O)[C@H](CCCCN)NC(=O)[C@H](CC(C)C)NC(=O)[C@H](CC(C)C)NC(=O)[C@H](CCC(N)=O)NC(=O)[C@H](CCCCN)NC(=O)[C@H](CC(C)C)NC(=O)[C@H](CC(C)C)NC(=O)[C@H](CCC(N)=O)NC(=O)[C@@H](N)CC(C)C)C(=O)N[C@@H](CCCCN)C(=O)N[C@@H](CCC(N)=O)C(=O)N[C@@H](Cc1ccccc1)C(N)=O` [LQLLKQLLKLLKQF], the minimal inhibitory concentration (MIC) is 4.63 µM (≈ 8 µg/mL) in assay [1]; 4.63 µM (≈ 8 µg/mL) in assay [2]; 9.27 µM (≈ 16 µg/mL) in [3]; 4.63 µM (≈ 8 µg/mL) in [4]; 9.27 µM (≈ 16 µg/mL) in assay [5]; 4.63 µM (≈ 8 µg/mL) in [6].
Regarding `CSCC[C@@H]1NC(=O)[C@H](CC(C)C)NC(=O)[C@H](C)NC(=O)[C@H](CCCN=C(N)N)NC(=O)[C@H](CC(N)=O)NC(=O)[C@@H](NC(=O)[C@H](CCCCN)NC(=O)[C@H](CC(N)=O)NC(=O)[C@H](CCCN=C(N)N)NC(=O)[C@@H]2CCCN2C(=O)[C@H](CCSC)NC(=O)[C@H](CO)NC(=O)[C@H](CC(C)C)NC(=O)[C@H](C)NC(=O)[C@@H](N)CC(N)=O)CSSC[C@@H](C(=O)N[C@@H](Cc2ccccc2)C(=O)NCC(=O)O)NC1=O` [NALSMPRNKCNRALMCFG], the MIC in [7] was determined as 6.17 µM (≈ 12.5 µg/mL); in assay [8] it was 6.17 µM (≈ 12.5 µg/mL); in [9], 3.08 µM (≈ 6.24 µg/mL); in [10], 3.08 µM (≈ 6.24 µg/mL); in assay [11] it was 24.7 µM (≈ 50 µg/mL); in assay [12], 6.17 µM (≈ 12.5 µg/mL).
For `CC[C@H](C)[C@H](NC(=O)[C@H](CCCN=C(N)N)NC(=O)[C@H](C)NC(=O)[C@H](C)N)C(=O)N[C@H](C(=O)N[C@@H](CC(C)C)C(=O)N[C@@H](CCCN=C(N)N)C(=O)N[C@@H](CC(=O)O)C(=O)N[C@@H](CCCN=C(N)N)C(=O)N[C@@H](Cc1ccccc1)C(=O)N[C@@H](CCCN=C(N)N)C(N)=O)[C@@H](C)CC` [AARIILRDRFR], the MIC in [13] was over 128 µM; in assay [14], at least 128 µM; in assay [15] it was over 128 µM; in assay [16], at least 128 µM; in assay [17], over 128 µM; in assay [18] it was at least 128 µM. Besides, the MIC in assay [19] was over 128 µM; in assay [20] it was at least 128 µM; in assay [21] it was at least 128 µM; in [22], at least 128 µM; in assay [23] it was over 128 µM; in assay [24], at least 128 µM. In addition, the MIC was over 128 µM in [11], over 128 µM in [25], at least 128 µM in assay [26] and at least 128 µM in assay [27].
As for `CC[C@H](C)[C@H](NC(=O)[C@H](Cc1ccccc1)NC(=O)[C@H](Cc1cnc[nH]1)NC(=O)[C@H](CCCCN)NC(=O)[C@@H](NC(=O)[C@H](Cc1ccccc1)NC(=O)[C@@H](NC(=O)[C@H](C)NC(=O)[C@H](CO)NC(=O)[C@H](Cc1cnc[nH]1)NC(=O)[C@H](CC(C)C)NC(=O)[C@H](CC(C)C)NC(=O)[C@H](Cc1cnc[nH]1)NC(=O)[C@H](Cc1cnc[nH]1)NC(=O)[C@H](CC(C)C)NC(=O)[C@H](CCCCN)NC(=O)[C@H](CCCCN)NC(=O)[C@H](CC(C)C)NC(=O)[C@H](CC(C)C)NC(=O)[C@H](CCCN=C(N)N)NC(=O)[C@H](CCCN=C(N)N)NC(=O)[C@H](Cc1c[nH]c2ccccc12)NC(=O)[C@@H](N)CCCN=C(N)N)[C@@H](C)O)[C@@H](C)CC)C(=O)N[C@@H](Cc1cnc[nH]1)C(=O)N[C@@H](CCCN=C(N)N)C(=O)N[C@@H](Cc1ccccc1)C(N)=O` [RWRRLLKKLHHLLHSATFIKHFIHRF], the MIC is 2.36 µM (≈ 8 µg/mL) in assay [1]; 4.72 µM (≈ 16 µg/mL) in assay [2]; 9.43 µM (≈ 32 µg/mL) in assay [3]; 4.72 µM (≈ 16 µg/mL) in assay [4]; 4.72 µM (≈ 16 µg/mL) in assay [5]; 9.43 µM (≈ 32 µg/mL) in [6].
As to `CC[C@H](C)[C@H](NC(=O)[C@H](CC(C)C)NC(=O)[C@H](Cc1cnc[nH]1)NC(=O)CNC(=O)[C@@H]1CCCN1C(=O)[C@@H](NC(=O)[C@H](CCCCN)NC(=O)[C@H](CO)NC(=O)[C@H](Cc1c[nH]c2ccccc12)NC(=O)[C@H](CCSC)NC(=O)CN)[C@@H](C)CC)C(=O)N[C@@H](CCCN=C(N)N)C(N)=O` [GMWSKIPGHLIR], the MIC in assay [28] is 25 µM (≈ 34.8 µg/mL); in assay [3], over 100 µM; in assay [12], over 100 µM; in assay [29] it was at least 100 µM.
`CC[C@H](C)[C@H](NC(=O)CNC(=O)[C@H](CCCCN)NC(=O)[C@H](Cc1ccccc1)NC(=O)[C@H](CC(C)C)NC(=O)[C@H](CC(C)C)NC(=O)[C@H](Cc1ccccc1)NC(=O)[C@H](CCCCN)NC(=O)CNC(=O)[C@@H](NC(=O)[C@@H](N)CCCCN)[C@@H](C)CC)C(=O)N[C@@H](CCCCN)C(=O)N[C@@H](CCCCN)C(=O)N[C@H](C(=O)NCC(=O)N[C@@H](CCCCN)C(=O)N[C@@H](Cc1ccccc1)C(=O)N[C@@H](CC(C)C)C(N)=O)[C@@H](C)CC` [KIGKFLLFKGIKKIGKFL]: the MIC was 32 µM (≈ 66.5 µg/mL) in assay [30], at least 32 µM in assay [14], 8 µM (≈ 16.6 µg/mL) in assay [20] and at least 32 µM in [24].
